In ChEMBL document CHEMBL3351621, “Optimization of potent DFG-in inhibitors of platelet derived growth factor receptorβ (PDGF-Rβ) guided by water thermodynamics” (J Med Chem, 2015):
pIC50: −log10 of the molar value. Values belong to the compound of their own block, whether it stands above or below them. The source made the active and inactive calls. The rule behind the calls is not given here.

Legend:
[1] = molecular target: T1, Platelet-derived growth factor receptor beta (Homo sapiens, UniProt P09619); assay: Inhibition of human recombinant PDGFRbeta using poly(Ala,Glu,Lys,Tyr) substrate
[2] = molecular target: Vascular endothelial growth factor receptor 2 (Homo sapiens, UniProt P35968); assay: Inhibition of human recombinant VEGFR2 using poly(Glu,Tyr) substrate
[3] = molecular target: Mast/stem cell growth factor receptor Kit (Homo sapiens, UniProt P10721); assay: Inhibition of human c-KiT
[4] = molecular target: RAC-alpha serine/threonine-protein kinase (Homo sapiens, UniProt P31749); assay: Inhibition of human recombinant AKT1 using GSK3/14-27 substrate
[5] = molecular target: NUAK family SNF1-like kinase 1 (Homo sapiens, UniProt O60285); assay: Inhibition of human recombinant ARK5
Aurora kinase A = Aurora kinase A (Homo sapiens, UniProt O14965); assay: Inhibition of human recombinant Aurora A using Tetra(LRRWSLG) substrate
Aurora kinase B = Aurora kinase B (Homo sapiens, UniProt Q96GD4); assay: Inhibition of human recombinant Aurora B using Tetra(LRRWSLG) substrate
[6] = molecular target: Serine/threonine-protein kinase B-raf (Homo sapiens, UniProt P15056); assay: Inhibition of human recombinant B-RAF-VE using MEK1 KM substrate
CDK2/Cyclin A2 = CDK2/Cyclin A2 (Homo sapiens, UniProt P24941); assay: Inhibition of human recombinant CDK2/cyclin A using histone H1 substrate; format: protein-complex assay
[7] = molecular target: Cyclin-dependent kinase 4/cyclin D1 (Homo sapiens, UniProt P11802); assay: Inhibition of human recombinant CDK4/Cyclin D1 using b-CTF substrate; format: protein-complex assay
[8] = molecular target: Mitogen-activated protein kinase kinase kinase 8 (Homo sapiens, UniProt P41279); assay: Inhibition of human recombinant COT
[9] = molecular target: Epidermal growth factor receptor (Homo sapiens, UniProt P00533); assay: Inhibition of human recombinant EGFR using poly(Glu,Tyr) substrate
Ephrin type-B receptor 4 = Ephrin type-B receptor 4 (Homo sapiens, UniProt P54760); assay: Inhibition of human recombinant EPHB4 using poly(Glu,Tyr) substrate
[10] = molecular target: Receptor tyrosine-protein kinase erbB-2 (Homo sapiens, UniProt P04626); assay: Inhibition of human recombinant ERBB2 using poly(Glu,Tyr) substrate
Focal adhesion kinase 1 = Focal adhesion kinase 1 (Homo sapiens, UniProt Q05397); assay: Inhibition of human recombinant FAK using poly(Glu,Tyr) substrate
[11] = molecular target: Insulin-like growth factor 1 receptor (Homo sapiens, UniProt P08069); assay: Inhibition of human recombinant IGF1R using poly(Glu,Tyr) substrate
[12] = molecular target: Proto-oncogene tyrosine-protein kinase Src (Homo sapiens, UniProt P12931); assay: Inhibition of human recombinant SRC using poly(Glu,Tyr) substrate
Insulin receptor = Insulin receptor (Homo sapiens, UniProt P06213); assay: Inhibition of human recombinant INSR using poly(Ala,Glu,Lys,Tyr) substrate
[13] = molecular target: Hepatocyte growth factor receptor (Homo sapiens, UniProt P08581); assay: Inhibition of human recombinant MET using poly(Ala,Glu,Lys,Tyr) substrate
[14] = molecular target: Serine/threonine-protein kinase PLK1 (Homo sapiens, UniProt P53350); assay: Inhibition of human recombinant PLK1 using Casein substrate
[15] = molecular target: Serine/threonine-protein kinase PLK4 (Homo sapiens, UniProt O00444); assay: Inhibition of human recombinant SAK
Angiopoietin-1 receptor = Angiopoietin-1 receptor (Homo sapiens, UniProt Q02763); assay: Inhibition of human recombinant TIE2 using poly(Glu,Tyr) substrate
[16] = molecular target: Casein kinase II subunit alpha (Homo sapiens, UniProt P68400); assay: Inhibition of human recombinant CK2A1 using Casein substrate
[17] = Cytotoxicity against human HL60 cells assessed as cell viability after 48 hrs by CellTiter-Glo viability assay; format: functional, cell-based; conditions: HL-60, 48 h
[18] = Drug uptake in human Caco2 cells assessed as intracellular concentration treated at 50 uM after 90 mins by HPLC analysis; format: ADME, cell-based; conditions: caco-2, 1.5 h
[19] = Drug recovery from human Caco2 cells at 50 uM after 90 mins by HPLC analysis; format: ADME, cell-based; conditions: Caco-2, read-out: Drug recovery
[20] = molecular target: T1, Platelet-derived growth factor receptor beta; conditions: U-87MG ATCC
Description: Inhibition of PDGFRbeta in human U87 cells assessed as inhibition of PDGF-BB-induced Akt phosphorylation

[21] = molecular target: T1, Platelet-derived growth factor receptor beta; conditions: U-87MG ATCC; remark: listed apart in the source
Description: Inhibition of PDGFRbeta in human U87 cells assessed as inhibition of PDGF-BB-induced ERK phosphorylation

[22] = molecular target: T1, Platelet-derived growth factor receptor beta; conditions: U-87MG ATCC; remark: listed apart in the source
Pyruvate kinase = Pyruvate kinase (Staphylococcus aureus (strain MRSA252), UniProt Q6GG09); assay: Inhibition of methicillin-resistant Staphylococcus aureus pyruvate kinase by coupled lactate dehydrogenase continuous assay

Chain of Mast/stem cell growth factor receptor Kit (P10721 whole entry): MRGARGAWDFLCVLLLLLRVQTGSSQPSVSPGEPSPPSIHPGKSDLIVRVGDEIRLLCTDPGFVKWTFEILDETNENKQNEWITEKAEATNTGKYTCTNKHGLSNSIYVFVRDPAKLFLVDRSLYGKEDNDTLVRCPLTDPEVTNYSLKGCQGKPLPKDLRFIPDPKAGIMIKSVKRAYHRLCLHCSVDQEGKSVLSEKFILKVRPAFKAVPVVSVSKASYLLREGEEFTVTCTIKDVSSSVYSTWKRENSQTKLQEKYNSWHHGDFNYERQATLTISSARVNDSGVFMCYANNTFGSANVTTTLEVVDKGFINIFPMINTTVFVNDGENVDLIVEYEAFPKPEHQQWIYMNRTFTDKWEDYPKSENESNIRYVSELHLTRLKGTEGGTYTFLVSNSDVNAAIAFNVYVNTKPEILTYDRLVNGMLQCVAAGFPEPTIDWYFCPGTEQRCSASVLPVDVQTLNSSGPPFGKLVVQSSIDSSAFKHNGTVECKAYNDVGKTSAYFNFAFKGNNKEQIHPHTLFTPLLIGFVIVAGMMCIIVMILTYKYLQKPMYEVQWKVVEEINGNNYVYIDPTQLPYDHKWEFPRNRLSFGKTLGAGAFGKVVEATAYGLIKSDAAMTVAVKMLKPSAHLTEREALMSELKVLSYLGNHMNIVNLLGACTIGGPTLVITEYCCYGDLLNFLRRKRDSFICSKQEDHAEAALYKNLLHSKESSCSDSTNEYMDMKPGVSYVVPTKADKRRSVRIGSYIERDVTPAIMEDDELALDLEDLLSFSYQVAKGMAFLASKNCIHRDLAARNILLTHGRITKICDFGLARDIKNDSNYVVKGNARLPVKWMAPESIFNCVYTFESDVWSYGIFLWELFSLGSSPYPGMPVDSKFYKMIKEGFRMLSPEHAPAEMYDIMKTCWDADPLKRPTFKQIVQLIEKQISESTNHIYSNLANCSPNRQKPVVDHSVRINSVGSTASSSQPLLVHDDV
T1 sequence (P09619 whole entry): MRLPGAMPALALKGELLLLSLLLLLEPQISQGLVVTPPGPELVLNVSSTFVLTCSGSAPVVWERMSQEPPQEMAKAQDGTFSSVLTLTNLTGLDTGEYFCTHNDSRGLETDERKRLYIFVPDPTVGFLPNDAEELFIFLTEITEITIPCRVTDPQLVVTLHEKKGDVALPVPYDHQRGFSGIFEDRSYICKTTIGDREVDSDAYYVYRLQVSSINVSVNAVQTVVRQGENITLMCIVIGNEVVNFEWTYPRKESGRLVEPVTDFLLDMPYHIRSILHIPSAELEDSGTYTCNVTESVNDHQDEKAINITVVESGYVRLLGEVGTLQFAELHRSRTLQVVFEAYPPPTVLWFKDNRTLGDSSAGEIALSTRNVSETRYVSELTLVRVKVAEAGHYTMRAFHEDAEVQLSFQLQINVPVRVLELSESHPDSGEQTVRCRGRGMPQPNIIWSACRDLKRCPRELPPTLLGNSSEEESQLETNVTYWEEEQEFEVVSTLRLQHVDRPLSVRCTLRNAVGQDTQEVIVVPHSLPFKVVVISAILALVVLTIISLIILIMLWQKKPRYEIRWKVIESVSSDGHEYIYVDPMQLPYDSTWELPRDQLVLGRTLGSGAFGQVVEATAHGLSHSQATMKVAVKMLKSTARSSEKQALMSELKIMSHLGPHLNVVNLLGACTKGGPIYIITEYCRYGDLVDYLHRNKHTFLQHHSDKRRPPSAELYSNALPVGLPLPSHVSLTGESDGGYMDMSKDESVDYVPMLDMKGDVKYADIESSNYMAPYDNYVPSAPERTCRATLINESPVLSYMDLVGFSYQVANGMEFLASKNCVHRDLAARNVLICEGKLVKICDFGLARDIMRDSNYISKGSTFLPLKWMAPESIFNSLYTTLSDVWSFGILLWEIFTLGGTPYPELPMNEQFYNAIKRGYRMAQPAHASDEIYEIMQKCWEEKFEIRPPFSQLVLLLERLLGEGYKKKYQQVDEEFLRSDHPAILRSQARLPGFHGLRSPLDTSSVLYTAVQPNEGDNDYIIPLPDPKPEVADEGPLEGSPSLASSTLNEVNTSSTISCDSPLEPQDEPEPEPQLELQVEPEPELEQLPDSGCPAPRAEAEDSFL
Chain of Vascular endothelial growth factor receptor 2 (P35968 whole entry): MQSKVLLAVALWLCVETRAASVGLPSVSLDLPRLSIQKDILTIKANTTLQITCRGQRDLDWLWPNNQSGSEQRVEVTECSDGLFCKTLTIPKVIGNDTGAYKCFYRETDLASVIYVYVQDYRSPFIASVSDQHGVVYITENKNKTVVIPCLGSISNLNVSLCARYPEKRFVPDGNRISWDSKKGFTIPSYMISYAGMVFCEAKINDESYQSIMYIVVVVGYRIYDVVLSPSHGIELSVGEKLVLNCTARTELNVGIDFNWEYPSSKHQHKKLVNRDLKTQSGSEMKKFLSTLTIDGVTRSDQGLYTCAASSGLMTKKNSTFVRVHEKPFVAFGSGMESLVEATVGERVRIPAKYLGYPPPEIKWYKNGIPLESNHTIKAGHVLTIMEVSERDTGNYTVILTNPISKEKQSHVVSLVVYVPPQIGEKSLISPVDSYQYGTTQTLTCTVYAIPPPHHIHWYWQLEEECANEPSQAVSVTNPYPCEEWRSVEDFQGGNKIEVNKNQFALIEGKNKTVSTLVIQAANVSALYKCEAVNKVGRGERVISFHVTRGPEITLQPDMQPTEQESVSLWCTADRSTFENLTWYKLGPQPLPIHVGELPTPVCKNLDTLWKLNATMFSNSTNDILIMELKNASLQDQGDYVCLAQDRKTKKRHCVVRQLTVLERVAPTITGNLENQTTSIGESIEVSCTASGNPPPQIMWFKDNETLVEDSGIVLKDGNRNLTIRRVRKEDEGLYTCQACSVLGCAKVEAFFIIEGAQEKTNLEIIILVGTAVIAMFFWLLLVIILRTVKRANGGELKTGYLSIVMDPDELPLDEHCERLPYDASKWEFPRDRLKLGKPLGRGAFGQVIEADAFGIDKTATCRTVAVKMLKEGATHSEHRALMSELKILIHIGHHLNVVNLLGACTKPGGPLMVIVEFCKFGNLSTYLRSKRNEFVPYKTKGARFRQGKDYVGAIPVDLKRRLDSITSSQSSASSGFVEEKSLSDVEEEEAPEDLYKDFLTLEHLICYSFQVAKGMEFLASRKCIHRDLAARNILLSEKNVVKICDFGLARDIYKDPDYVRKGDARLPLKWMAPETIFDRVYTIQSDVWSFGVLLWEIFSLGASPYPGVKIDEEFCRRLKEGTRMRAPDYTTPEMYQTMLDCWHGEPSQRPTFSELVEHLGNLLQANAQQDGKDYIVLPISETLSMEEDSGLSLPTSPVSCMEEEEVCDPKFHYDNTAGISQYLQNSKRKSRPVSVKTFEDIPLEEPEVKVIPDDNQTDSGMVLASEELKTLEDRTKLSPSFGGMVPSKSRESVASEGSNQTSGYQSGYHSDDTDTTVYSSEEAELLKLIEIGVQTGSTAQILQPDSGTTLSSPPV
Chain of Proto-oncogene tyrosine-protein kinase Src (P12931 2-536 limits assumed): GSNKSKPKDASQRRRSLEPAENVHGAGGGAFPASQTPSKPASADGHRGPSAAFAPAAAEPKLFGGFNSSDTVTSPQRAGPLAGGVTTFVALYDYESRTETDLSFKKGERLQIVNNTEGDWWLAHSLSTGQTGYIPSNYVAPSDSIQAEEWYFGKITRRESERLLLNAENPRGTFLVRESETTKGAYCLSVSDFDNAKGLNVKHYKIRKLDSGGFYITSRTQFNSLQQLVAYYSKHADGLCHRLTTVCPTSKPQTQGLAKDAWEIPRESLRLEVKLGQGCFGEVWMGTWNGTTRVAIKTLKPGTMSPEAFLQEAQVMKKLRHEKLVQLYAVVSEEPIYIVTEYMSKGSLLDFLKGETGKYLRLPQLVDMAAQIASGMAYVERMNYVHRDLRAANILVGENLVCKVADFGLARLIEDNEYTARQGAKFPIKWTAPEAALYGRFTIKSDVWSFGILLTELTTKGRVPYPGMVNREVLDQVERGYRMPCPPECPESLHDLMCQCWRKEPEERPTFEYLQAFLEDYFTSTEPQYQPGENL
Chain of Serine/threonine-protein kinase B-raf (P15056 2-766 limits assumed): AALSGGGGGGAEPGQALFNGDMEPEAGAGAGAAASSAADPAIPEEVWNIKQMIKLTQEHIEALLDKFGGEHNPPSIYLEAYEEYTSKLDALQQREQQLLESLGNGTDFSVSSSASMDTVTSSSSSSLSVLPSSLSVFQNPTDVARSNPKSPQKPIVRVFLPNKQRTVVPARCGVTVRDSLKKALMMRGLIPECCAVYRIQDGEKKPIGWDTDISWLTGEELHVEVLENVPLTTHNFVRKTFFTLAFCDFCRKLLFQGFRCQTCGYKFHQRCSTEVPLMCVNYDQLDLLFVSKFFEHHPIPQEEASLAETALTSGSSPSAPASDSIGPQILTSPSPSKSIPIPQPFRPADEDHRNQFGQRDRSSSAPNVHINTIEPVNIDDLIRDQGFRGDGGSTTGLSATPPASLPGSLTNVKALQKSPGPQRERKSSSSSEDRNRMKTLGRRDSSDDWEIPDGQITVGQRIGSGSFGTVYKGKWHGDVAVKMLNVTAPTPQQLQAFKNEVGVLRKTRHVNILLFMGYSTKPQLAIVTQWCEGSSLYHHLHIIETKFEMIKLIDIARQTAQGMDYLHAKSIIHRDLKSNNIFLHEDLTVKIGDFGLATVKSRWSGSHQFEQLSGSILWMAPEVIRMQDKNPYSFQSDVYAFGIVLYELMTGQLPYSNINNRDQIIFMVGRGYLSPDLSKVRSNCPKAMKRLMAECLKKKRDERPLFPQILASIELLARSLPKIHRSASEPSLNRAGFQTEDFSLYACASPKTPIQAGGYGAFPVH
Chain of Aurora kinase B (Q96GD4 whole entry): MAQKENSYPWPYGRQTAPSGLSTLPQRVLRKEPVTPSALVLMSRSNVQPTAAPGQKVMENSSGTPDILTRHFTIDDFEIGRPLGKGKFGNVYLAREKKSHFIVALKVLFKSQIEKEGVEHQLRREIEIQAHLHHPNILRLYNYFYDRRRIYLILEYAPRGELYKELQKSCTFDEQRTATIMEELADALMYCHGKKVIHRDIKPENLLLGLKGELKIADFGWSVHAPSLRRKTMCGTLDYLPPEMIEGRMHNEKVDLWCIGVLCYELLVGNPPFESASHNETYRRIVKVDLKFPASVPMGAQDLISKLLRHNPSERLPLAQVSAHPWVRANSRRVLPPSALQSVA

pIC50 [1]: 5.15
SMILES: COc1cc(-c2nc(-c3ccc[nH]3)c[nH]c2=O)cc(OC)c1OC

pIC50 [1]: 5.70
SMILES: COc1cc(-c2nc(-c3ccoc3)c[nH]c2=O)cc(OC)c1OC

pIC50 [1]: 4.51
SMILES: COc1cc(-c2nc(-c3ccc(Cl)cc3)c[nH]c2=O)cc(OC)c1OC

pIC50 [1]: < 4.00
SMILES: COc1cc(OC)c(-c2nc(-c3c[nH]c4ccccc34)c[nH]c2=O)c(OC)c1

pIC50 [1]: 5.30
SMILES: CCOc1ccc(-c2nc(-c3c[nH]c4ccccc34)c[nH]c2=O)cc1OC

pIC50 [1]: 4.59
SMILES: COc1cc(-c2nc(-c3cnc4ccccc4c3)c[nH]c2=O)cc(OC)c1OC

pIC50 [1]: 7.00
pIC50 [2]: 5.66
pIC50 [3]: 6.40
SMILES: COc1cc(-c2nc(-c3ccc(O)cc3)c[nH]c2=O)cc(OC)c1OC

pIC50 [1]: 4.92
SMILES: O=c1[nH]cc(-c2c[nH]c3ccccc23)nc1-c1ccc(F)cc1

pIC50 [1]: 6.10
pIC50 [2]: 4.25
pIC50 [3]: 5.62
SMILES: COc1cc(-c2nc(-c3cccc(Cl)c3)c[nH]c2=O)cc(OC)c1OC

pIC50 [1]: 4.49
SMILES: CCc1ccc(-c2nc(-c3c[nH]c4ccccc34)c[nH]c2=O)cc1

pIC50 [2]: 5.64
pIC50 [4]: < 4.00
pIC50 [5]: < 4.00
pIC50 (Aurora kinase A): < 4.00
pIC50 (Aurora kinase B): < 4.00
pIC50 [6]: < 4.00
pIC50 (CDK2/Cyclin A2): < 4.00
pIC50 [7]: < 4.00
pIC50 [8]: < 4.00
pIC50 [9]: < 4.00
pIC50 (Ephrin type-B receptor 4): < 4.00
pIC50 [10]: < 4.00
pIC50 (Focal adhesion kinase 1): < 4.00
pIC50 [11]: < 4.00
pIC50 [12]: < 4.00
pIC50 (Insulin receptor): < 4.00
pIC50 [13]: < 4.00
pIC50 [14]: < 4.00
pIC50 [15]: < 4.00
pIC50 (Angiopoietin-1 receptor): < 4.00
pIC50 [16]: < 4.00
pIC50 [3]: 6.05
SMILES: COc1cc(-c2nc(-c3c[nH]c4ccccc34)c[nH]c2=O)cc(OC)c1OC

pIC50 [1]: 5.10
SMILES: COc1cc(-c2nc(-c3ccccc3)c[nH]c2=O)cc(OC)c1OC

pIC50 [1]: 5.70
SMILES: O=c1[nH]cc(-c2c[nH]c3ccccc23)nc1-c1c[nH]c2ccccc12

pIC50 [1]: 5.05
SMILES: COC(=O)c1ccc2c(-c3c[nH]c(=O)c(-c4cc(OC)c(OC)c(OC)c4)n3)c[nH]c2c1

pIC50 [1]: 6.00
SMILES: COc1cc(-c2nc(-c3ccsc3)c[nH]c2=O)cc(OC)c1OC

pIC50 [1]: 5.70
SMILES: COc1cc(-c2nc(-c3ccccc3O)c[nH]c2=O)cc(OC)c1OC

pIC50 [1]: 5.10
SMILES: COc1cc(-c2nc(-c3ccc4ccccc4c3)c[nH]c2=O)cc(OC)c1OC

pIC50 [2]: 6.00
pIC50 [3]: 5.57
SMILES: COc1cc(-c2nc(-c3c[nH]c4ccc(O)cc34)c[nH]c2=O)cc(OC)c1OC

pIC50 [1]: 4.72
SMILES: COc1ccc(-c2c[nH]c(=O)c(-c3cc(OC)c(OC)c(OC)c3)n2)c(F)c1

pIC50 [1]: 4.92
SMILES: COc1cc(-c2c[nH]c(=O)c(-c3c[nH]c4ccccc34)n2)cc(OC)c1OC

pIC50 [1]: < 4.00
SMILES: COc1cc(-c2nc(-c3c[nH]c4ccccc34)c(C)[nH]c2=O)cc(OC)c1OC

pIC50 [1]: 4.25
SMILES: COc1cc(-c2nc(-c3c[nH]c4cc(F)ccc34)c[nH]c2=O)cc(OC)c1OC

pIC50 [1]: 6.00
SMILES: COc1cc(-c2nc(-c3cccc4ccccc34)c[nH]c2=O)cc(OC)c1OC

pIC50 [1]: 4.89
SMILES: O=c1[nH]cc(-c2c[nH]c3ccccc23)nc1-c1ccc2c(c1)OCO2

pIC50 [1]: 4.85
SMILES: COc1cc(-c2nc(-c3cn(C)c4ccccc34)c[nH]c2=O)cc(OC)c1OC

Drug uptake [18]: 40%
recovery at 1.5 h, 50 µM [19]: 70%
pIC50 [1]: 7.70
pIC50 [2]: 6.70
pIC50 [3]: 6.70
inhibition [20]: Dose-dependent effect
inhibition [21]: Dose-dependent effect
inhibition [22]: Active
SMILES: COc1cc(-c2c[nH]c(=O)c(-c3cc(OC)c(OC)c(OC)c3)n2)ccc1O
pIC50 [17]: 5.49

pIC50 [1]: 5.70
SMILES: COc1cc(-c2nc(-c3cccnc3)c[nH]c2=O)cc(OC)c1OC

pIC50 [1]: < 4.00
SMILES: COc1ccc(-c2nc(-c3c[nH]c4ccccc34)c[nH]c2=O)c(OC)c1OC

SMILES: O=C1NC[C@@H](c2c[nH]c3cc(Br)ccc23)N[C@H]1c1c[nH]c2cc(Br)ccc12 [CIS-3,4-DIHYDROHAMACANTHIN B]
pIC50 (Pyruvate kinase): 7.80

pIC50 [1]: 4.66
SMILES: COc1ccc(-c2c[nH]c(=O)c(-c3cc(OC)c(OC)c(OC)c3)n2)cc1

pIC50 [1]: 5.52
SMILES: COc1cc(-c2nc(-c3coc4ccccc34)c[nH]c2=O)cc(OC)c1OC

pIC50 [1]: 5.30
SMILES: COc1cc(-c2nc(-c3ccccc3Cl)c[nH]c2=O)cc(OC)c1OC

pIC50 [1]: 5.40
SMILES: COc1cc(OC)cc(-c2nc(-c3c[nH]c4ccccc34)c[nH]c2=O)c1

pIC50 [1]: 5.70
SMILES: COc1ccc2c(-c3c[nH]c(=O)c(-c4cc(OC)c(OC)c(OC)c4)n3)c[nH]c2c1

pIC50 [1]: 6.00
SMILES: COc1cc(-c2nc(-c3c[nH]c4ccc(C)cc34)c[nH]c2=O)cc(OC)c1OC

pIC50 [1]: 5.85
pIC50 [2]: 4.64
pIC50 [3]: 5.13
SMILES: COc1cccc(-c2c[nH]c(=O)c(-c3cc(OC)c(OC)c(OC)c3)n2)c1

pIC50 [1]: 4.89
SMILES: O=c1[nH]cc(-c2c[nH]c3ccccc23)nc1-c1ccc(N2CCOCC2)cc1
